Results published in the supplement of paper PMC11208160.

assay: recombinant UMI read abundance after kanamycin selection (control-corrected) (log10(CPM+1)); higher = more efficient recombination; extreme values may be limits of the assay; sequences stand for … in AGTGCAGAGAAAATCGGCCAGTTTTCTCTGCCTGCAGTCCGCATGCCGTGGGACCCCTTGGGTTCTAACCTGTTGCCTAGATTTATGCAGCGGACTGCCTTTCTCCCAAAGTGATAAACCGG…AGGTTGGTTTCACT; site = the 11-nt donor
Method in brief: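 Two replicates each of selected and unselected plating were used in this pooled Escherichia coli screen of donor and donor-binding-loop pairs for the IS621 bridge recombinase. Selection was with IPTG (0.07 mM) and kanamycin. Counts of recombinant UMIs, amplified across the donor–target junction, were converted to CPM, averaged, scaled by control-derived factors and reported as log10(CPM+1).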
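Further: IS621 bridge recombinase in Escherichia coli cells against a fixed T5 target plasmid.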

In order of falling “recombinant UMI read abundance (log10)” value:
1. ATAAACTCATGGACCGGTTTTCCCGGTAATCCGTATTTGCG (site ATAAACTCTCG)  3.23
2. AGTAGCTCATGGACCGGTTTTCCCGGTAATCCGTATTTGGC (site AGTAGCTCTGC)  2.79
3. AGTTCCTCATGGACCGGTTTTCCCGGTAATCCGTATTTGCA (site AGTTCCTCTTG)  2.47
4. AGTCAGACATGGACCGGTTTTCCCGGTAATCCGTATTTGGC (site AGTCAGACTGC)  2.34
5. AGTGTAACATGGACCGGTTTTCCCGGTAATCCGTATTTGCT (site AGTGTAACTAG)  1.94
6. AGTGTAACATGGACCGGTTTTCCCGGTAATCCGTATTTGCT (site ACTGTAACTAG)  1.47
7. AGTATTTCATGGACCGGTTTTCCCGGTAATCCGTATTTGAG (site AGTATTTCTCT)  1.39
8. AGTGTAACATGGACCGGTTTTCCCGGTAATCCGTATTTGCT (site AATGTAACTAG)  1.36
9. AGTAGTGCATGGACCGGTTTTCCCGGTAATCCGTATTTGGT (site AGTAGTGCTAC)  1.3
10. AGTTGATCATGGACCGGTTTTCCCGGTAATCCGTATTTGAC (site AGTTGATCTGT)  1.28
11. AGTAGAACATGGACCGGTTTTCCCGGTAATCCGTATTTGAG (site AGTAGAACTCT)  1.24
12. AGTGTCTCATGGACCGGTTTTCCCGGTAATCCGTATTTGAG (site AGTGTCTCTCT)  1.2
13. AGTCTGGCATGGACCGGTTTTCCCGGTAATCCGTATTTGAA (site AGTCTGGCTTT)  1.19
14. ATAAACCCATGGACCGGTTTTCCCGGTAATCCGTATTTGAT (site ATAAACCCTAT)  1.19
15. AGTCTTACATGGACCGGTTTTCCCGGTAATCCGTATTTGGT (site AGTCTTACTAC)  1.14
16. AGTGTAACATGGACCGGTTTTCCCGGTAATCCGTATTTGCT (site ATTGTAACTAG)  1.12
17. AGTTCAGCATGGACCGGTTTTCCCGGTAATCCGTATTTGAT (site AGTTCAGCTAT)  1.05
18. AGTTAGGCATGGACCGGTTTTCCCGGTAATCCGTATTTGGA (site AGTTAGGCTTC)  0.957
19. AGTAGAACATGGACCGGTTTTCCCGGTAATCCGTATTTGAG (site ACTAGAACTCT)  0.901
20. AGTTCGACATGGACCGGTTTTCCCGGTAATCCGTATTTGAC (site AGTTCGACTGT)  0.845
21. AGTAGAACATGGACCGGTTTTCCCGGTAATCCGTATTTGAG (site AATAGAACTCT)  0.806
22. AGTACTGCATGGACCGGTTTTCCCGGTAATCCGTATTTGGT (site AGTACTGCTAC)  0.745
23. AGTAGTACATGGACCGGTTTTCCCGGTAATCCGTATTTGGT (site AGTAGTACTAC)  0.706
24. AGTAGTGCATGGACCGGTTTTCCCGGTAATCCGTATTTGGT (site ACTAGTGCTAC)  0.699
25. AGTCCGACATGGACCGGTTTTCCCGGTAATCCGTATTTGTC (site AGTCCGACTGA)  0.624
26. AGTCGTACATGGACCGGTTTTCCCGGTAATCCGTATTTGGA (site AGTCGTACTTC)  0.529
27. AGTTGCTCATGGACCGGTTTTCCCGGTAATCCGTATTTGAA (site AGTTGCTCTTT)  0.47
28. AGTAGAACATGGACCGGTTTTCCCGGTAATCCGTATTTGAG (site ATTAGAACTCT)  0.418
29. AGTAGTGCATGGACCGGTTTTCCCGGTAATCCGTATTTGGT (site AATAGTGCTAC)  0.246
30. AGTTGTTCATGGACCGGTTTTCCCGGTAATCCGTATTTGTT (site AGTTGTTCTAA)  0.233
31. AGTTTCCCATGGACCGGTTTTCCCGGTAATCCGTATTTGTG (site AGTTTCCCTCA)  0.0252
32. AGTGCCGCATGGACCGGTTTTCCCGGTAATCCGTATTTGGG (site AGTGCCGCTCC)  0.025
33. AGTTGGCCATGGACCGGTTTTCCCGGTAATCCGTATTTGGG (site AGTTGGCCTCC)  0.0248
34. AGTTTCCCATGGACCGGTTTTCCCGGTAATCCGTATTTGTG (site AGCTTCCCTCA)  0.0227
35. AGTTTCCCATGGACCGGTTTTCCCGGTAATCCGTATTTGTG (site AGATTCCCTCA)  0.0216
36. AGTTTGCCATGGACCGGTTTTCCCGGTAATCCGTATTTGAA (site AGTTTGCCTTT)  0.00758
37. AGTAGTGCATGGACCGGTTTTCCCGGTAATCCGTATTTGGT (site ATTAGTGCTAC)  0.00696
38. AGTTTCCCATGGACCGGTTTTCCCGGTAATCCGTATTTGTG (site AGGTTCCCTCA)  0.0056
